Data taken from patent US20080038728A1, “Quadruple Transformed Cell Line Useful for the Identification of Transport Inhibitors” (priority 2004, published 2008).
Where two headings read alike, the source gives them in different places.

Columns and labels:
[1] = system: OATP1B1, OATP1B3, and OATP2B1; test: Uptake (intracellular accumulation) kinetics in ABCC2/OATP1B1/1B3/2B1 quadruple-transfected MDCKII cells; assay type: in vitro ADME, human; details: for Km: human
Description: (a) MDCKII cells were grown on ThinCerts (24-mm diameter, pore size 0.4 μm, pore density 1×10^8 per cm^2) and induced with butyrate as mentioned above. The cells were washed in prewarmed (37° C.) transport buffer (142 mM NaCl, 5 mM KCl, 1 mM KH2PO4, 1.2 mM MgSO4, 1.5 mM CaCl2, 5 mM glucose, and 12.5 mM HEPES, pH 7.3). The ^3H-labeled substrate was dissolved in transport buffer and added either to the apical or to the basolateral compartment at the concentration indicated. After incubation at 37° C., the radioactivity in the opposite compartment was measured by sampling aliquots from the apical or basolateral compartment. Cells were washed 2 times with ice-cold transport buffer containing 0.5% bovine serum albumin and 3 times in ice-cold transport buffer. Intracellular accumulation of radioactivity was calculated by lyzing the cells with 0.2% sodium dodecyl sulfate (SDS) and measuring the radioactivity in the lysate.

OATP1B1 [2] = biological target: T1, OATP1B1 (Homo sapiens, UniProt Q9Y6L6); details: BSP uptake, background section; cited from earlier work
T1 sequence (Q9Y6L6 1-691): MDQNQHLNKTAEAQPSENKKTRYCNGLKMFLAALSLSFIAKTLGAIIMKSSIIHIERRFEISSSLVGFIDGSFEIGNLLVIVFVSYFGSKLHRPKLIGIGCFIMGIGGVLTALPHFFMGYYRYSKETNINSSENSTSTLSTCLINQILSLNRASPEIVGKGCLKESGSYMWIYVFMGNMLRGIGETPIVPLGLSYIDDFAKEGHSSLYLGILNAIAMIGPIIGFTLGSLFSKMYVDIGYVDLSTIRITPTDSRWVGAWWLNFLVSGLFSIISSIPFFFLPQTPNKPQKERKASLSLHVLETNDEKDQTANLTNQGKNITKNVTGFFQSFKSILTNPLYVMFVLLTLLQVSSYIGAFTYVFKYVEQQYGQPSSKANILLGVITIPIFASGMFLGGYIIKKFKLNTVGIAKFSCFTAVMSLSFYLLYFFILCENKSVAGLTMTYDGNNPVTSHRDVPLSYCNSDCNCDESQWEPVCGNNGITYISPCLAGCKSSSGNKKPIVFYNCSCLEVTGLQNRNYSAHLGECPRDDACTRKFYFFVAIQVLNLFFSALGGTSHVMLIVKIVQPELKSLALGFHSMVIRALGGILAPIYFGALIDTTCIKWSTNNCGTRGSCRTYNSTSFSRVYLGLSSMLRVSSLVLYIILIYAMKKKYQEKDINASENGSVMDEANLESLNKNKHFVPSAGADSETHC

OATP1B3 = biological target: T2, OATP1B3 (Homo sapiens, UniProt Q9NPD5); details: BSP uptake, background section; cited from earlier work
T2 sequence (Q9NPD5 1-702): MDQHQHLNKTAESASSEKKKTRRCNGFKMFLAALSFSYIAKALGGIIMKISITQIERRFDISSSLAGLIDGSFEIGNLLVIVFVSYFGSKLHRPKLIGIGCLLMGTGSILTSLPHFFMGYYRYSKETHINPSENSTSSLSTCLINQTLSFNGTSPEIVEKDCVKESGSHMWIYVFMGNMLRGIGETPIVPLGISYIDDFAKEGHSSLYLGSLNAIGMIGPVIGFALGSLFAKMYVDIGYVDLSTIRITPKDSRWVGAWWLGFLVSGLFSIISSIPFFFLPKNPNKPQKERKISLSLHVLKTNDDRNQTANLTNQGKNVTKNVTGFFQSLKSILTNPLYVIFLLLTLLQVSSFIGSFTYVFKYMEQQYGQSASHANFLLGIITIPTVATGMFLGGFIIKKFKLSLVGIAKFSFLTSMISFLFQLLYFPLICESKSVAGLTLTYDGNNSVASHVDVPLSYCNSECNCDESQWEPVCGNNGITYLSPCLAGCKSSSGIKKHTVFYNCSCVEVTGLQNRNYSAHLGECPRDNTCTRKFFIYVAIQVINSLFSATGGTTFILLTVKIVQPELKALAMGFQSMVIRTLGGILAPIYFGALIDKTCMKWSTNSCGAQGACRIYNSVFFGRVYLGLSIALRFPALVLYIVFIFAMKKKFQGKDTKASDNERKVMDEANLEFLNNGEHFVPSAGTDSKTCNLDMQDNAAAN

OATP1B1 [3] = biological target: T1, OATP1B1; details: cRNA-injected Xenopus laevis oocytes; cited from earlier work
OATP2B1 = biological target: T3, OATP2B1 (Homo sapiens, UniProt O94956); details: cRNA-injected Xenopus laevis oocytes; cited from earlier work
T3 sequence (O94956 1-709): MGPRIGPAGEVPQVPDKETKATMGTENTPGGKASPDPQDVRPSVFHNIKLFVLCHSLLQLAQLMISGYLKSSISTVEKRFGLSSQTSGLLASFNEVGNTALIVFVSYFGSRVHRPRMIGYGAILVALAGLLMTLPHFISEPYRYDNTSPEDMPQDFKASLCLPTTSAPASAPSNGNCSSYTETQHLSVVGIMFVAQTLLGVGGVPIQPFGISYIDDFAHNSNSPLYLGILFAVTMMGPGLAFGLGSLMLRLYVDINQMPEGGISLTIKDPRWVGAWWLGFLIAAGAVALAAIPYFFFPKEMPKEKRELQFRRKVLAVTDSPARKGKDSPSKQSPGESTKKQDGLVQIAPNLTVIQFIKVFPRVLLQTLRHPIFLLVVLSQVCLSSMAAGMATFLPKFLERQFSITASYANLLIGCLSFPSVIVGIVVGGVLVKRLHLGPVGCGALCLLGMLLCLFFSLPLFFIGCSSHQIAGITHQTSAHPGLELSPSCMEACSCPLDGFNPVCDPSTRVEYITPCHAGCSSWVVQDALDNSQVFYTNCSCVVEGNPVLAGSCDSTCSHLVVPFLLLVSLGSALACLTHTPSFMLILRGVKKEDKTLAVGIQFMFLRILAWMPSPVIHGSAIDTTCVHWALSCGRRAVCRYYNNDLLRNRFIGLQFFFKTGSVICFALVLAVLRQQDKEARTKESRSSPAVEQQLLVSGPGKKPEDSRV

ABCC2 = ABCC2 (Homo sapiens, UniProt Q92887); set-up: expressed in transfected cells; host or cells: MDCKII-ABCC2 single-transfected cells (membrane vesicles); details: BSP: Cui et al., 2001; CCK-8: Letschert et al., 2005; cited from earlier work
Chain of ABCC2 (Q92887 whole entry): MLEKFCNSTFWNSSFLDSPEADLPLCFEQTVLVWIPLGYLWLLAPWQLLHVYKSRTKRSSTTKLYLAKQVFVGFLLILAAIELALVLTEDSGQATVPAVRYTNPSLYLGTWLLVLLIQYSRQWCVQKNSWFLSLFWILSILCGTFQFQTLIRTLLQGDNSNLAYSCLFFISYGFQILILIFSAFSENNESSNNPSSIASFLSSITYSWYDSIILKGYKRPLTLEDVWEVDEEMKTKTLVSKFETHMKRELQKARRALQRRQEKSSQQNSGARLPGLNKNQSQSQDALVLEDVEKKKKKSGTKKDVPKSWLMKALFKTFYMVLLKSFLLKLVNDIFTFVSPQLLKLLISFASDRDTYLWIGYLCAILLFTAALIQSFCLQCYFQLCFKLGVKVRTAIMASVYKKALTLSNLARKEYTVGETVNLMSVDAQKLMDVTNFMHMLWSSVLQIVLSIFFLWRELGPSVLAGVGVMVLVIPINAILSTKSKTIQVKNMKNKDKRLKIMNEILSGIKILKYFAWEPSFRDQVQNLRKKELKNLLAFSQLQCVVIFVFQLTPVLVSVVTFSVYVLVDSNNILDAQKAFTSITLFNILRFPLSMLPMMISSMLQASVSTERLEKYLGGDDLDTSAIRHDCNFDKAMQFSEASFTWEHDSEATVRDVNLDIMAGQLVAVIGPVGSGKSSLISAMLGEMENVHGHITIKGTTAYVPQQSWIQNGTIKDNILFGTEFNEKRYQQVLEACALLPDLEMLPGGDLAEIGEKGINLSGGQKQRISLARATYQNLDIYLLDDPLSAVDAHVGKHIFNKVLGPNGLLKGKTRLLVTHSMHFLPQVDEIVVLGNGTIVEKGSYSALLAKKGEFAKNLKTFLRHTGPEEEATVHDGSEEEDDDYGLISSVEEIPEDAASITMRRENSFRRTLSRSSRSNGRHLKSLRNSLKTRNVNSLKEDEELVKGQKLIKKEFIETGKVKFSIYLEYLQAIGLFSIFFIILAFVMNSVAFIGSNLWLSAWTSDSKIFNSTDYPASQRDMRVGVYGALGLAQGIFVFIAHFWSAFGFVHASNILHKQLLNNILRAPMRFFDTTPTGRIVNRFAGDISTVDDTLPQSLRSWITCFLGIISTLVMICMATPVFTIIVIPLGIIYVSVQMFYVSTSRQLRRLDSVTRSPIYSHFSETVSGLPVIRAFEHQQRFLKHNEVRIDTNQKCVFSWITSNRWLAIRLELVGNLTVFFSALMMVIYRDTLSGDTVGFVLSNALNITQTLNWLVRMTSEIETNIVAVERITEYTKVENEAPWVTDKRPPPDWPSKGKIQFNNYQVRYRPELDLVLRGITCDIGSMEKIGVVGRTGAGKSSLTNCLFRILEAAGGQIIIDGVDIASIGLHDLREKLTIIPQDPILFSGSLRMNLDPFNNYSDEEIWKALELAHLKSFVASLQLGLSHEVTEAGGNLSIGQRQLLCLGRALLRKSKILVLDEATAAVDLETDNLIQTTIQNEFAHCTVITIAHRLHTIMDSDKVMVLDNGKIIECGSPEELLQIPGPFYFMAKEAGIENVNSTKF

SMILES: O=C1OC(c2ccc(O)c(S(=O)(=O)O)c2)(c2ccc(O)c(S(=O)(=O)O)c2)c2c(Br)c(Br)c(Br)c(Br)c21 [Bromosulfophthalein]
- maximal velocity ([1]; ABCC2/OATP1B1/1B3/2B1 quadruple-transfectants): 197.8 pmol×mg protein×min^−1
- Vmax ([1]; cell line ABCC2-OATP1B1/1B3/2B1 (quadruple-transfectant), intracellular accumulation of 3H-labeled substrate): 197.8 ± 3.0 pmol · mg protein^−1 · min^−1
- Km ([1]; pH 7.3, cell line ABCC2-OATP1B1/1B3/2B1 (quadruple-transfectant), intracellular accumulation of 3H-labeled substrate, read-out: Km): 4.8 µM
- Km ([1]; pH 7.3, summary bound for the OATPs, referring to Table 1, read-out: Km values for the OATPs): < 5 µM
- Km (OATP1B1 [2]): 0.14 µM
- Km (OATP1B3): 3.4 µM
- Km (OATP1B1 [3]): 0.3 µM
- Km (OATP2B1): 0.7 µM
- Km (ABCC2): 12 µM
